Source: patent US8049038B2, “Carnitine conjugates of adamantanamines derivatives as dual prodrugs for various uses” (priority 2006, dated 2011)

How the values were obtained:
[1] = Toxicity observed in mice after subcutaneous administration in the NMDA test; format: in vivo; details: male NIH-Swiss mice; 120 mg/kg SC; n=8 mice/group
Description: (§1) Memantine (30 mg/kg; SC) was used as a positive control in each experiment and there were n=8 mice/group for all conditions.

NMDA receptors = experiment: NMDA-induced seizure activity and lethality in mice (in vivo test for NMDA antagonist activity); details: male NIH-Swiss mice, 30 min before NMDA 200 mg/kg IP
Description: Compounds 3-(3,5-dimethyladamantan-1-ylcarbamoyl)-(R)-2-hydroxypropyl)-trimethyl ammonium chloride [Formula 1(B); R1 and R2 are CH3; n=0], and 3-benzyloxycarbonyl-(R)-2-{[(3,5-dimethyladamantan-1-ylcarbamoyl)-propionyloxy]propyl}-trimethyl ammonium bromide [Formula 4(B); R1 and R2 are CH3; n=0; R3, R4, R5, R6 are hydrogen; and R^2 is a benzyl group] were selected for in vivo testing in mice, since both are potential prodrugs for memantine and L-carnitine through in vivo enzymatic hydrolysis of either an amide or ester linkages. Since memantine has N-methyl-D-aspartate (NMDA) antagonist properties, it was assumed that the above compounds would share these properties and therefore a test was utilized that identifies NMDA antagonist activity in vivo. Briefly, this test measures seizure activity and lethality in mice produced by the administration of NMDA […] which block these parameters in a dose-dependent manner (see Leander, J. D., et al., Brain Res. 448, 115-120 (1988), N-methyl-D-aspartate acid-induced lethality in mice: selective antagonism by phencyclidine-like drugs; Parsons, C. G., et al., Neuropharmacol. 34, 1239-1258 (1995).
as §1

For `CC12CC3CC(C)(C1)CC(NC(=O)C[C@@H](O)C[N+](C)(C)C)(C3)C2.[Cl-]` [[3-(3,5-Dimethyl-adamantan-1-ylcarbamoyl)-(R)-2-hydroxy-propyl]-trimethylammonium chloride], the toxicity [1] was “tremors, lethality in n=3 mice”, the “activity in NMDA-induced seizure/lethality test” value (NMDA receptors; 60 mg/kg SC) was “inactive” and the time to lethality (NMDA receptors; 120 mg/kg SC, observed 30 min) was “slightly increased”.
For `CC12CC3CC(C)(C1)CC(NC(=O)CCC(=O)O[C@H](CC(=O)OCc1ccccc1)C[N+](C)(C)C)(C3)C2.[Br-]` [{3-Benzyloxycarbonyl-(R)-2-[3-(3,5-Dimethyladamantan-1-ylcarbamoyl)-propionyloxy]-propyl}-trimethylammonium bromide], the “time to produce clonic seizures” value (NMDA receptors; 90 mg/kg SC, observed 30 min) was “markedly increased” and the “time to produce death” value (NMDA receptors; 90 mg/kg SC, observed 30 min) was “markedly increased”.
